Laboratory results from publication PMC9694334, “Synthesis and Biological Evaluation of a Fused Structure of Indolizine and Pyrrolo[1,2-c]pyrimidine: Identification of Its Potent Anticancer Activity against Liver Cancer Cells” (Pharmaceuticals, 2022).

Assays:
Assay type in all cases: cell-based
HEK293T cells = experiment: Cell viability assay (MTS) in HEK293T cells; details: 72 h, Figure 2H
Description: (§1) Cell viability assay was conducted using Cell Titer 96® AQueous One Solution Cell proliferation Assay kit (Promega, Madison, WI, USA). Five cancer cells and HaCaT cells were plated in 96-well microplates with growth medium for 24 h. When cell confluency reached ~30%, cells were treated with DMSO (vehicle) and test compounds. The medium and test compounds were replaced every 24 h. To measure cell viability, the cells were incubated with MTS solution for 1 h. The absorbance was measured by using Infinite M200 microplate reader (Tecan, Männedorf, Switzerland) at 490 nm.
(§2) Figure 2 Effect of 5r on cell viability in HepG2, Huh7, AGS, H1299, A549, HaCaT, NIH3T3, and HEK293T cells. (A–H) HepG2, Huh7, AGS, H1299, A549, HaCaT, NIH3T3, and HEK293T cells were cultured with 5r at the indicated concentrations for 72 h, and medium was replaced every 24 h with freshly added 5r. Cell viability was measured by MTS analysis (mean ± S.D., n = 5). * p < 0.05, ** p < 0.01, *** p < 0.001.

AGS cells = experiment: Cell viability assay (MTS) in AGS cells; details: 72 h, MTS, Figure 2C
Description: (§3) HepG2, Huh7, H1299, HT29, AGS and A549 cells were purchased from the Korean Cell Line Bank (Seoul, Korea) and HaCaT cells were obtained from Prof. Sohee Kwon (Yonsei University, Korea). Liver cancer cells (HepG2), human keratinocyte cells (HaCaT), and lung cancer cells (A549) were grown in DMEM high-glucose medium, liver cancer cells (Huh7) and non-small cell lung cancer cells (H1299) were grown in RPMI 1640, and gastric cancer cells (AGS) were grown in Coon’s modified F12 medium. All media were supplemented with 10% FBS, 100 Units/mL penicillin, and 100 μg/mL streptomycin. All cells were incubated at 37 °C, 5% CO2 and 95% humidity.
as §1, §2

HepG2 cells [1] = experiment: Combination of 5r with gemcitabine, cell viability (MTS) in HepG2 cells; details: co-treatment with gemcitabine (0.3 μM), 72 h
Description: as §1
(§4) Figure 6 Combination effect of 5r and gemcitabine on cell viability in HepG2 and Huh7 cells. (A,B) HepG2 and Huh7 cells were cultured with the indicated concentrations of 5r and gemcitabine (0.3 μM) for 72 h, and medium was replaced every 24 h with freshly added 5r and gemcitabine. Cell viability was determined by MTS analysis (mean ± S.D., n = 5). ** p < 0.01, *** p < 0.001.

Huh7 cells [2] = experiment: Cell viability assay (MTS) in Huh7 cells; details: Homo sapiens, Huh-7, mean, n = 5, 72 h for 5r (Figure 2)
Description: as §3, §1, §2

cleaved PARP = experiment: Western blot analysis of cleaved PARP in Huh7 cells; details: 24 h, Figure 4F,H
Description: For Western blot analysis, HepG2 and Huh7 cells were lysed with RIPA buffer (50 mM Tris-HCl, PH 7.4, 1% Nonidet P-40, 0.25% sodium deoxycholate, 150 mM NaCl, 1 mM EDTA, 1 mM Na3VO4, and protease inhibitor). Lysed samples were centrifuged at 13,000 RPM for 20 min at 4 °C to remove the cell debris, and equal amounts (60 μg protein/lane) of supernatant protein were divided by 4–12% Tris Glycine Precast Gel (KOMA BIOTECH, Seoul, Korea). Then, PVDF membranes (Millipore, Billerica, MA, USA) were used to transfer the separated proteins. Membrane blocking was performed by Tris-buffered saline with 0.1% Tween 20 (TBST) containing 5% bovine serum albumin (BSA) at room temperature for 50 min. The membranes were incubated with primary antibodies overnight at 4 °C with the indicated primary antibodies: anti-cleaved PARP (BD Biosciences) and anti-β-actin (Santa Cruz Biotechnology, Dallas, TX, USA). […] After 1 h, membranes were detected by using ECL Plus Western blotting detection system (GE Healthcare, Piscataway, NJ, USA).
Figure 4 Effect of 5r on activity of caspase-3 and cleavage of PARP in HepG2 and Huh7 cells. […] (E,F) Cells were cultured with 5r at the indicated concentrations for 24 h, and expression level of PARP, cleaved-PARP and β-actin were measured by Western blot analysis. […]

HepG2 cells [3] = experiment: Flow cytometry cell cycle analysis (propidium iodide) in HepG2 cells; details: 3 µM 5r for 24 h
Description: HepG2 cells were grown to approximately 40% confluence in a 6-well plate and then 5r was treated for 24 h. After 24 h, HepG2 cells were washed out twice with PBS and centrifuged at 1000 RPM for 2 min at room temperature. The cells were stained with propidium iodide for 15 min and then cell cycle phases were measured by using FACS (Beckman Coulter, Fullerton, CA, USA).
Figure 5 Effect of 5r on cell cycle in HepG2 cells. (A,B) HepG2 cells were treated with 3 µM 5r for 24 h and then cell cycle phases were measured by propidium iodide staining, followed by flow cytometry analysis.

Huh7 cells [4] = experiment: In vitro wound-healing assay in Huh7 cells; details: Figure 3
Description: The suppressive effect of 5r on cell migration was assessed through in vitro wound-healing assay. HepG2 and Huh7 cells were grown to approximately 100% confluence to form a monolayer in a 96-well microplate. Wounds were formed through 96-well wound maker (Essen BioScience, Ann Arbor, MI, USA). Then, growth medium was removed and washed out twice with phosphate-buffered saline (PBS) and incubated with 200 μL of DMEM and RPMI 1640 medium containing 5r or vehicle (DMSO). Images of the wound area were taken by using IncuCyte ZOOM (Essen BioScience, Ann Arbor MI, USA), and the percentage of wound closure was measured by using IncuCyte software.
Figure 3 Inhibitory effect of 5r on cell migration in HepG2 and Huh7 cells. (A,B) In vitro wound-healing assay was performed in HepG2 and Huh7 cells (mean ± S.D., n = 3). HepG2 and Huh7 cells were treated with the indicated concentrations of 5r, and time-lapse images were acquired every 2 h after wound infliction. (C,D) Representative images were taken at 0, 48, or 72 h following administration of 5r at the indicated concentrations.

Huh7 cells [5] = experiment: Combination of 5r with gemcitabine, cell viability (MTS) in Huh7 cells; details: co-treatment with gemcitabine (0.3 μM), 72 h
Description: as §1, §4

H1299 cells = experiment: Cell viability assay (MTS) in H1299 cells; details: 72 h, MTS, Figure 2D
Description: as §3, §1, §2

IC50 (Huh7 cells [2]): 0.1 µM
SMILES: N#Cc1c2c3cccn3c(-c3ccccc3O)nc2n2ccccc12 [Compound 5r, 5-(2-Hydroxyphenyl)pyrrolo[1′,2′:1,6]pyrimido[5,4-b]indolizine-12-carbonitrile]
Effect on cell viability in non-cancerous HEK293T cells (HEK293T cells): weakly decreased cell viability
Effect on cell viability in AGS cells (AGS cells): weak effect
Combination effect with gemcitabine on cell viability in HepG2 cells (HepG2 cells [1]): additional effect rather than a synergistic effect
Expression level of cleaved PARP in Huh7 cells (cleaved PARP): increased the expression level of cleaved PARP in a dose-dependent manner
Ratio in the G2/M phase (HepG2 cells [3]): did not affect
Sub-G1 (apoptotic peak) phase ratio (HepG2 cells [3]; control 24.1%): 56.9%
G0/G1 phase ratio (HepG2 cells [3]; control 64.6%): 29.3%
Effect on cell migration (wound closure) in Huh7 cells (Huh7 cells [4]): significantly inhibited cell migration in a dose-dependent manner
Combination effect with gemcitabine on cell viability in Huh7 cells (Huh7 cells [5]): additional effect rather than a synergistic effect
Effect on cell viability in H1299 cells (H1299 cells): weak effect
